{"source": "patent US6555062B1", "about": "“Reagent container for an automated analyzer” (Bayer Corporation, priority 1991, dated 2003)", "key": {"[1]": {"system": "T4 antiserum covalently coupled to the solid phase", "assay": "Free thyroxine (FT4) competitive chemiluminescent immunoassay, specificity (% cross-reactivity)", "assay_type": "binding", "settings": "FT4 assay, anti-T4 paramagnetic particles, 7.5 minutes at 37° C.", "procedure": "A free thyroxine (FT4) assay has been developed for the above described automated analyzer. The FT4 assay is a competitive binding assay in which FT4 in a test sample competes with labeled T4 (tracer reagent) for a limited amount of T4 antiserum covalently coupled to the solid phase. In the preferred format of this assay acridinium ester is the label and paramagnetic particles serve as the solid phase. A test sample (25 uL.) acridinium ester labeled T4 (100 uL.) and anti-T4 paramagnetic particles (450 uL.) are dispensed by the analyzer into a cuvette and incubated for 7.5 minutes at 37° C. After incubation, magnetic separation and washes are performed as described prior to detection of the chemiluminescent signal. The amount of FT4 present in the test sample is determined by the level of the signed detected and is converted to a dose by a two-point data reduction algorithm."}, "[2]": {"system": "prostate specific antigen (PSA) assay", "assay": "PSA chemiluminescent immunoassay, interfering substances (endogenous compounds, chemotherapeutic agents)", "settings": "mean over three PSA levels", "procedure": "A prostate specific antigen (PSA) assay has been developed for the above described automated analyzer. The PSA assay utilizes an anti-PSA antibody solid phase and a labeled anti-PSA antibody as a tracer reagent. […] A test sample (100 uL.), tracer reagent (50 uL.) and solid phase reagent (250 uL.) are dispersed into a cuvette by the analyzer and incubated for 7.5 minutes at 37° C. After the incubation, magnetic separation and washes are performed as described above prior to detection of the chemiluminescent signal.\nAll data presented was generated based on a two-point calibration off a standard curve consisting of eight points."}, "[3]": {"system": "human chorionic gonadotropin (hCG) assay", "assay": "hCG sandwich immunoassay, interfering substances (NCCLS protocols)", "settings": "bilirubin 20, lipid 1,000, hemolysate 500 mg/dL", "procedure": "A human chorionic gonadotropin (hCG) assay has been developed for the above described automated analyzer. […] A test sample (50 uL.) and tracer reagent (100 uL.) are dispensed into a cuvette by the analyzer and incubated for 5.0 minutes at 37° C. The capture solid phase reagent (450 uL.) is then added to the cuvette followed by an additional incubation of 2.5 minutes. After the second incubation, magnetic separation and washes are performed as described above prior to detection of the chemiluminescent signal.\nAll data presented was generated based on a two-point calibration off a full standard master curve, consisting of ten standards. The standards, ranging from zero to 1000 mIU/mL., are calibrated against the WHO 1st 75/537 reference material."}, "[4]": {"assay": "Digoxin immunoassay, interfering substances (NCCLS protocols)", "settings": "bilirubin 20, lipid 1,000, hemolysate 500 mg/dL", "procedure": "A digoxin assay has been developed for the above described automated analyzer. The digoxin assay architecture is a hapten solid phase with a labeled antibody (tracer reagent). […] A test sample (150 uL.) and tracer reagent (50 uL.) are dispensed into a cuvette by the analyzer and incubated for 2.5 minutes at 37° C. The solid phase reagent (250 uL.) is then added to the cuvette followed by an additional incubation of 5.0 minutes. After the second incubation, magnetic separation and washes are performed as described above prior to detection of the chemiluminescent signal.\n(§1) All data presented was generated based upon a two-point recalibration off an original master curve. The master curve was generated using eight standards with values ranging from zero to 6 ng/mL digoxin."}, "[5]": {"system": "monoclonal anti-digoxin antibody", "assay": "Digoxin chemiluminescent immunoassay, specificity (cross-reactivity, effect on dose)", "assay_type": "binding", "settings": "digoxin assay", "procedure": "A digoxin assay has been developed for the above described automated analyzer. The digoxin assay architecture is a hapten solid phase with a labeled antibody (tracer reagent). In the preferred format of this assay, the tracer reagent is an acridinium ester labeled monoclonal anti-digoxin antibody; and the solid phase is paramagnetic particles to which digoxin-apoferritin has been immobilized. A test sample (150 uL.) and tracer reagent (50 uL.) are dispensed into a cuvette by the analyzer and incubated for 2.5 minutes at 37° C. The solid phase reagent (250 uL.) is then added to the cuvette followed by an additional incubation of 5.0 minutes. After the second incubation, magnetic separation and washes are performed as described above prior to detection of the chemiluminescent signal.\nas §1\nThe test assay has a sensitivity of less than 0.1 ng/mL (minimum detectable dose defined as the 95% confidence limit at 0 ng/mL.) with a range of 0-5 ng/mL. The correlation of the automated test assay with a manual test assay (Magic^R Digoxin, Ciba Corning Diagnostics, Corp.) provided a slope of 1.00, an intercept of 0.08 and a correlation coefficient of 0.97 (N=130)."}}, "note": "“And” between values parts separate entries of the source, which are not always exact repeats. Identical values can stand only once.", "data": [{"compound": "N[C@H](Cc1cc(I)c(Oc2cc(I)c(O)c(I)c2)c(I)c1)C(=O)O", "note": "[D-thyroxine]", "values": [{"measurement": "% Cross-Reactivity", "setting": "[1]", "value": ">64", "unit": "%"}]}, {"compound": "Hemoglobin: endogenous interferent spiked into patient samples at 500 mg/dL", "values": [{"measurement": "Spiked vs. Control, Mean +/− SD", "setting": "[2]; endogenous interferents", "value": "99 +/− 4%"}]}, {"compound": "C=CC1=C(C)/C(=C/c2[nH]c(Cc3[nH]c(/C=C4\\NC(=O)C(C)=C4C=C)c(C)c3CCC(=O)O)c(CCC(=O)O)c2C)NC1=O", "note": "[Unconjug. Bilirubin]", "values": [{"measurement": "Spiked vs. Control", "setting": "[3]", "value": "106% and 98% and 103%"}, {"measurement": "Spiked vs. Control", "setting": "[4]", "value": "105% and 99%"}, {"measurement": "Spiked vs. Control, Mean +/− SD", "setting": "[2]; endogenous interferents", "value": "103 +/− 6%"}]}, {"compound": "CO[C@H]1[C@@H](O)C[C@H](O[C@H]2[C@@H](O)C[C@H](O[C@H]3[C@@H](O)C[C@H](O[C@H]4CC[C@@]5(C)[C@H](CC[C@@H]6[C@@H]5C[C@@H](O)[C@]5(C)[C@@H](C7=CC(=O)OC7)CC[C@]65O)C4)O[C@@H]3C)O[C@@H]2C)O[C@@H]1C", "note": "[β-Methyldigoxin]", "values": [{"measurement": "% Cross-Reactivity", "setting": "[5]", "value": 109.4, "unit": "%"}]}, {"compound": "N[C@@H](Cc1cc(I)c(Oc2ccc(O)c(I)c2)c(I)c1)C(=O)O", "note": "[L-triiodothyronine]", "values": [{"measurement": "% Cross-Reactivity", "setting": "[1]", "value": 3.9, "unit": "%"}]}, {"compound": "N[C@H](Cc1cc(I)c(Oc2ccc(O)c(I)c2)c(I)c1)C(=O)O", "note": "[D-triiodothyronine]", "values": [{"measurement": "% Cross-Reactivity", "setting": "[1]", "value": 3.6, "unit": "%"}]}, {"compound": "CC(=O)O[C@]1(C(C)=O)CC[C@H]2[C@@H]3C=C(C)C4=CC(=O)CC[C@]4(C)[C@H]3CC[C@@]21C", "note": "[Megestrol Acetate]", "values": [{"measurement": "Spiked vs. Control, Mean +/− SD", "setting": "[2]; chemotherapeutic agents", "value": "101 +/− 5%"}]}, {"compound": "CC(=O)O[C@H]1C[C@H](O[C@H]2[C@@H](O)C[C@H](O[C@H]3[C@@H](O)C[C@H](O[C@H]4CC[C@@]5(C)[C@H](CC[C@@H]6[C@@H]5C[C@@H](O)[C@]5(C)[C@@H](C7=CC(=O)OC7)CC[C@]65O)C4)O[C@@H]3C)O[C@@H]2C)O[C@H](C)[C@H]1O[C@@H]1O[C@H](CO)[C@@H](O)[C@H](O)[C@H]1O", "note": "[Lanatoside C]", "values": [{"measurement": "% Cross-Reactivity", "setting": "[5]", "value": 87.1, "unit": "%"}]}, {"compound": "C[C@H]1O[C@@H](O[C@H]2[C@@H](O)C[C@H](O[C@H]3[C@@H](O)C[C@H](O[C@H]4CC[C@@]5(C)[C@H](CC[C@@H]6[C@@H]5CC[C@]5(C)[C@@H](C7=CC(=O)OC7)CC[C@]65O)C4)O[C@@H]3C)O[C@@H]2C)C[C@H](O)[C@@H]1O", "note": "[Digitoxin]", "values": [{"measurement": "% Cross-Reactivity", "setting": "[5]", "value": 0.6, "unit": "%"}]}, {"compound": "NC(Cc1ccc(Oc2cc(I)c(O)c(I)c2)c(I)c1)C(=O)O", "note": "(centres unmarked) [Reverse triiodothyronine]", "values": [{"measurement": "% Cross-Reactivity", "setting": "[1]", "value": 3.1, "unit": "%"}]}, {"compound": "O=P1(N(CCCl)CCCl)NCCCO1", "note": "(centres unmarked) [Cyclophosphamide]", "values": [{"measurement": "Spiked vs. Control, Mean +/− SD", "setting": "[2]; chemotherapeutic agents", "value": "98 +/− 3%"}]}, {"compound": "N[C@@H](Cc1cc(I)c(O)c(I)c1)C(=O)O", "note": "[Diiodotyrosine]", "values": [{"measurement": "% Cross-Reactivity", "setting": "[1]", "value": "<0.002", "unit": "%"}]}, {"compound": "N[C@@H](Cc1cc(I)c(Oc2ccc(O)cc2)c(I)c1)C(=O)O", "note": "[3,5-diiodo-L-thyronine]", "values": [{"measurement": "% Cross-Reactivity", "setting": "[1]", "value": "<0.002", "unit": "%"}]}, {"compound": "C[C@H]1O[C@@H](O[C@H]2CC[C@@]3(C)[C@H](CC[C@@H]4[C@@H]3C[C@@H](O)[C@]3(C)[C@@H](C5=CC(=O)OC5)CC[C@]43O)C2)C[C@H](O)[C@@H]1O[C@H]1C[C@H](O)[C@H](O[C@H]2C[C@H](O)[C@H](O[C@@H]3O[C@H](CO)[C@@H](O)[C@H](O)[C@H]3O)[C@@H](C)O2)[C@@H](C)O1", "note": "[Deslanoside]", "values": [{"measurement": "% Cross-Reactivity", "setting": "[5]", "value": 94.6, "unit": "%"}]}, {"compound": "C[C@@H]1O[C@@H](O[C@H]2C[C@@H](O)[C@]3(CO)[C@H]4[C@H](O)C[C@]5(C)[C@@H](C6=CC(=O)OC6)CC[C@]5(O)[C@@H]4CC[C@]3(O)C2)[C@H](O)[C@H](O)[C@H]1O", "note": "[Ouabain]", "values": [{"measurement": "% Cross-Reactivity", "setting": "[5]", "value": 7.3, "unit": "%"}]}, {"compound": "CC/C(=C(/CC)c1ccc(O)cc1)c1ccc(O)cc1", "note": "[Diethyl-Stilbesterol]", "values": [{"measurement": "Spiked vs. Control, Mean +/− SD", "setting": "[2]; chemotherapeutic agents", "value": "101 +/− 5%"}]}, {"compound": "COc1cccc2c1C(=O)c1c(O)c3c(c(O)c1C2=O)C[C@@](O)(C(=O)CO)C[C@@H]3O[C@H]1C[C@H](N)[C@H](O)[C@H](C)O1", "note": "[Doxorubicin]", "values": [{"measurement": "Spiked vs. Control, Mean +/− SD", "setting": "[2]; chemotherapeutic agents", "value": "100 +/− 3%"}]}, {"compound": "N[C@@H](Cc1ccc(O)c(I)c1)C(=O)O", "note": "[Monoiodotyrosine]", "values": [{"measurement": "% Cross-Reactivity", "setting": "[1]", "value": "<0.002", "unit": "%"}]}, {"compound": "Conjugated Bilirubin", "values": [{"measurement": "Spiked vs. Control", "setting": "[3]", "value": 102, "unit": "%"}, {"measurement": "Spiked vs. Control", "setting": "[4]", "value": "106% and 99%"}, {"measurement": "Spiked vs. Control, Mean +/− SD", "setting": "[2]; endogenous interferents", "value": "101 +/− 9%"}]}]}
